Reference: US20050009809A1, “Acridine derivatives and their use as medicaments” (priority 2003, published 2005)
In brackets after ≈: the same amount, converted by molar mass. Where two headings read alike, the source gives them in different places.

What was measured:
[1] = Saturation solubility in water; settings: for solubility: water, thermodynamic from solid; for Water solubility compared to the comparison substances: versus comparison substances of WO0208194
Description: (§3) The saturation solubility in water is determined as described below. For incipient dissolution of the substances and to improve wetting of the samples, at most 1% of DMSO is added. To check the content, an HPLC-UV method was used.

[2] = tested on: human glioblastoma cell line SF-268; test: XTT proliferation assay, SF-268; assay type: cell-based; settings: for EC50: Homo sapiens, read-out: XTT proliferation assay, EC50, SF-268
From the text: (§1) The substances according to the invention were investigated for their antiproliferative activity in a proliferation test on established tumor cell lines. The test used determines the cellular dehydrogenase activity and makes possible a determination of the cell vitality and indirectly the cell count. The cell lines used are the human cervical carcinoma cell line KB/HeLa (ATCC CCL17), the ovarian adenocarcinoma cell line SKOV-3 (ATCC HTB77), the human glioblastoma cell line […] (NCI 503138) and the lung carcinoma cell line NCI-H460 (NCI 503473).
(§2) The adherently growing tumor cell lines KB/HeLa, SKOV-3, SF-268 and NCI-H460 were cultured under standard conditions in a fumigation incubator at 37° C., 5% CO2 and 95% atmospheric humidity. On experimental day 1, the cells are detached using trypsin/EDTA and pelleted by centrifugation. Subsequently, the cell pellet is resuspended in the respective culture medium at the corresponding cell count and reacted in a 96-well microtiter plate. The plates are then cultured overnight in the fumigation incubator. The test substances are prepared as 1 mg/ml stock solutions in DMSO and diluted to the appropriate concentrations on experimental day 2 using culture medium. The substances in culture medium are then added to the cells and incubated in the fumigation incubator for 45 h. As a control, cells which are not treated with test substance are used. For the XTT assay, 1 mg/ml of XTT (sodium 3′-[1-(phenylaminocarbonyl)-3,4-tetrazolium]-bis(4-methoxy-6-nitro)benzenesulfonic acid) is dissolved in RPMI-1640 medium without Phenol Red. Additionally, a 0.383 mg/ml PMS (N-methyldibenzopyrazine methylsulfate) solution in phosphate-buffered saline solution (PBS) is prepared. On experimental day 4, 75 μl/well of XTT-PMS mixture is pipetted onto the cell plates which in the meantime have been incubated with the test substances for 45 h. For this, shortly before use, the XTT solution is mixed with the PMS solution in the ratio 50:1 (vol:vol). The cell plates are then incubated in the fumigation incubator for a further 3 h and the optical density (OD490 nm) is determined in a photometer. By means of the OD490 nm determined, the percentage inhibition is calculated relative to the control and plotted semilogarithmically in the form of a concentration-action curve. The EC50 is calculated by means of a regression analysis from the concentration-action curve using the program Graphpad Prism.

[3] = tested on: human cervical carcinoma cell line KB/HeLa; test: XTT proliferation assay, KB/HeLa; assay type: cell-based; settings: for EC50: Homo sapiens, read-out: XTT proliferation assay, EC50, KB/Hela
From the text: as §1, §2

[4] = tested on: lung carcinoma cell line NCI-H460; test: XTT proliferation assay, NCI-H460; assay type: cell-based, human; settings: for EC50: Homo sapiens, read-out: XTT proliferation assay, EC50, NCI-H460
From the text: as §1, §2

[5] = tested on: ovarian adenocarcinoma cell line SKOV-3; test: XTT proliferation assay, SKOV-3; assay type: cell-based, human; settings: for EC50: Homo sapiens, read-out: XTT proliferation assay, EC50, SKOV3
From the text: as §1, §2

[6] = tested on: bovine tubulin with 30% associated proteins (MAPs); test: Tubulin polymerization assay; assay type: biochemical; settings: tubulin with 30% MAPs, average of two independent experiments
Description: The compounds according to the invention were tested for inhibition of the polymerization of bovine tubulin in an in-vitro test. In this test, tubulin purified by cycles of polymerization and depolymerization is employed, which is polymerized by addition of GTP and warming. In Table 2, the inhibition or EC50 values of the inhibition of polymerization of tubulin with 30% associated proteins (MAPs) are indicated.
The assay is carried out based on the method of Bollag et al. Lyophilized bovine tubulin (cytoskeleton, ML113 tubulin 30% MAPs) is dissolved in a concentration of 2 mg/ml (ML113 in 80 mM PIPES, 0.5 mM EGTA, 2 mM MgCl2, pH 6.9, 1 mM GTP) or 5 mg/ml (TL238 in 80 mM PIPES, 1 mM EGTA, 0.5 mM MgCl2, 20% (v:v) glycerol pH 6.9, 1 mM GTP). The test substances are diluted in 10% DMSO (v:v) and 5 μl of the dilutions are transferred to a 96-well microtiter plate (Nunc, half area plate). After addition of 45 μl of the tubulin solution, the polymerization is determined at 340 nm in a Spectramax 190 microtiter plate reader (Molecular Devices) by means of a kinetics program at 30 sec intervals over a period of 20 min. The resulting area under curve values are used for the calculation of the inhibition with respect to the untreated control. The controls are untreated cells (±induction). Induction was carried out using 3 μM of muristerone A. On day 1, the cells are sown (±muristerone A) and incubated at 37° C. for 24 h. On day 2, the test substance is added (control DMSO) and incubation at 37° C. is continued further 45 h, after which a standard XTT assay is carried out.

physchem = settings: water, thermodynamic from solid
Description: as §3

[7] = NCI-H460 cells, 45 h incubation
[8] = SK-OV-3, SKOV-3 cells, 45 h incubation

solubility [1] [µg/mL]	Water solubility compared to the comparison substances [1]	EC50 ([2]; SF-268 cells, 45 h incubation) [µg/mL]	EC50 ([3]; KB/HeLa cells, 45 h incubation) [µg/mL]	EC50 [4, 7] [µg/mL]	EC50 [5, 8] [µg/mL]	Inhibition of tubulin polymerization using 30% MAPs, EC50 [6] [µg/mL]	SMILES	also measured
1.07 (≈ 2.8 µM)	–	–	–	–	–	–	Cc1cccc(N2CCN(C(=O)c3c4ccccc4nc4ccccc34)CC2)n1 [Acridin-9-yl-[4-(6-methylpyridin-2-yl)piperazin-1-yl]methanone, reference compound]	–
–	–	0.018	0.013	0.019	0.011	1.35	CC(=O)Oc1cccc(N2CCN(C(=O)c3c4ccccc4nc4ccccc34)CC2)c1 [Compound 3, 3-[4-(Acridin-9-ylcarbonyl)piperazin-1-yl]phenyl acetate]	Inhibition of tubulin polymerization in [% INH at 10 μg/ml] using 30% MAPs [6]: 87 % INH
–	–	0.024 (≈ 0.0544 µM)	0.017 (≈ 0.0385 µM)	0.021 (≈ 0.0476 µM)	0.015 (≈ 0.034 µM)	1.08	COC(=O)Oc1cccc(N2CCN(C(=O)c3c4ccccc4nc4ccccc34)CC2)c1 [Compound 5, 3-[4-(Acridin-9-ylcarbonyl)piperazin-1-yl]phenyl methyl carbonate]	Inhibition of tubulin polymerization in [% INH at 10 μg/ml] using 30% MAPs [6]: 94.3 % INH
–	–	0.032 (≈ 0.0653 µM)	0.021 (≈ 0.0429 µM)	0.029 (≈ 0.0592 µM)	0.019 (≈ 0.0388 µM)	–	O=C(OCCCl)Oc1cccc(N2CCN(C(=O)c3c4ccccc4nc4ccccc34)CC2)c1 [Compound 6, 3-[4-(Acridin-9-ylcarbonyl)piperazin-1-yl]phenyl 2-chloroethyl carbonate]	melting point: 162 to 163 °C; Inhibition of tubulin polymerization in [% INH at 10 μg/ml] using 30% MAPs [6]: 70 % INH
–	–	0.069	0.078	0.079	0.048	4.82	CS(=O)(=O)Oc1cccc(N2CCN(C(=O)c3c4ccccc4nc4ccccc34)CC2)c1 [Compound 15, 3-[4-(Acridin-9-ylcarbonyl)piperazin-1-yl]phenyl methanesulfonate]	Inhibition of tubulin polymerization in [% INH at 10 μg/ml] using 30% MAPs [6]: 94.8 % INH
–	–	0.043 (≈ 0.0794 µM)	0.033 (≈ 0.0609 µM)	0.042 (≈ 0.0775 µM)	0.026 (≈ 0.048 µM)	–	CC1(C)OCC(COC(=O)Oc2cccc(N3CCN(C(=O)c4c5ccccc5nc5ccccc45)CC3)c2)O1 (centres unmarked) [Compound 16, 3-[4-(Acridin-9-ylcarbonyl)piperazin-1-yl]phenyl 2,2-dimethyl-[1,3]-dioxolan-4-ylmethyl carbonate]	melting point: 107 to 108 °C
115 (≈ 203 µM)	greatly improved water solubilities	0.027 (≈ 0.0477 µM)	0.024 (≈ 0.0424 µM)	0.025 (≈ 0.0442 µM)	0.018 (≈ 0.0318 µM)	–	CN1CCN(C(=O)CCC(=O)Oc2cccc(N3CCN(C(=O)c4c5ccccc5nc5ccccc45)CC3)c2)CC1 [Compound 21, 3-[4-(Acridin-9-ylcarbonyl)piperazin-1-yl]phenyl 4-(4-methylpiperazin-1-yl)-4-oxobutyrate]	–
–	–	0.076 (≈ 0.184 µM)	0.064 (≈ 0.155 µM)	0.067 (≈ 0.162 µM)	0.042 (≈ 0.102 µM)	2.06	COc1cccc(N2CCN(C(=O)c3c4ccccc4nc4ccc(O)cc34)CC2)c1 [Compound 37, (2-Hydroxyacridin-9-yl)-[4-(3-methoxyphenyl)piperazin-1-yl]methanone]	–
–	–	0.137 (≈ 0.343 µM)	0.125 (≈ 0.313 µM)	0.214 (≈ 0.536 µM)	0.095 (≈ 0.238 µM)	4.57	O=C(c1c2ccccc2nc2ccc(O)cc12)N1CCN(c2cccc(O)c2)CC1 [Compound 38, (2-Hydroxyacridin-9-yl)-[4-(3-hydroxyphenyl)piperazin-1-yl]methanone]	–

Further lines, the molecule ahead of its results:

SMILES	solubility [1] [µg/mL]	Water solubility compared to the comparison substances [1]	EC50 ([2]; SF-268 cells, 45 h incubation) [µg/mL]	EC50 ([3]; KB/HeLa cells, 45 h incubation) [µg/mL]	EC50 [4, 7] [µg/mL]	EC50 [5, 8] [µg/mL]	Inhibition of tubulin polymerization using 30% MAPs, EC50 [6] [µg/mL]	also measured
Cc1cccc(N2CCN(C(=O)c3c4ccccc4nc4cc(O)cc(O)c34)CC2)n1 [Compound 1, (1,3-Dihydroxyacridin-9-yl)-[4-(6-methylpyridin-2-yl)piperazin-1-yl]-methanone]	83.9 (≈ 202 µM)	greatly improved water solubilities	–	–	–	–	–	–
O=C(NCCO)Oc1cccc(N2CCN(C(=O)c3c4ccccc4nc4ccccc34)CC2)c1 [Compound 7, 3-[4-(Acridin-9-ylcarbonyl)piperazin-1-yl]phenyl (2-hydroxyethyl)carbamate]	–	greatly improved water solubilities	0.031 (≈ 0.0659 µM)	0.029 (≈ 0.0616 µM)	0.036 (≈ 0.0765 µM)	0.019 (≈ 0.0404 µM)	–	solubility (physchem): 108 µg/mL (≈ 230 µM)
O=C(CCC(=O)N(CCO)CCO)Oc1cccc(N2CCN(C(=O)c3c4ccccc4nc4ccccc34)CC2)c1 [Compound 20, 3-[4-(Acridin-9-ylcarbonyl)piperazin-1-yl]phenyl N,N-bis-(2-hydroxy-ethyl)succinate]	–	greatly improved water solubilities	–	–	–	–	–	Absolute solubility in water ([1]; saturation solubility, at most 1% DMSO, HPLC-UV): 143.5 µg/mL; XTT proliferation assay, EC50, SF-268 ([2]; SF-268 cells, 45 h incubation): 0.021 µg/mL; XTT proliferation assay, EC50, KB/Hela ([3]; KB/HeLa cells, 45 h incubation): 0.023 µg/mL; XTT proliferation assay, EC50, NCI-H460 [4, 7]: 0.027 µg/mL; XTT proliferation assay, EC50, SKOV3 ([5]; SKOV-3 cells, 45 h incubation): 0.014 µg/mL
O=C(CCC(=O)OC1C(O)C(O)OC(CO)C1O)Oc1cccc(N2CCN(C(=O)c3c4ccccc4nc4ccccc34)CC2)c1 (centres unmarked) [Compound 25, 3-[4-(Acridin-9-ylcarbonyl)piperazin-1-yl]phenyl 2,3,5-trihydroxy-6-hydroxymethyltetrahydropyran-4-yl succinate]	215	greatly improved water solubilities	0.029	0.019	0.035	0.014	–	–
O=C(NCCN1CCOCC1)Oc1cccc(N2CCN(C(=O)c3c4ccccc4nc4ccccc34)CC2)c1 [Compound 29, 3-[4-(Acridin-9-ylcarbonyl)piperazin-1-yl]phenyl (2-morpholin-4-yl-ethyl)carbamate]	41 (≈ 76 µM)	greatly improved water solubilities	0.024 (≈ 0.0445 µM)	0.036 (≈ 0.0667 µM)	0.027 (≈ 0.05 µM)	0.017 (≈ 0.0315 µM)	–	–
O=C(c1c2ccccc2nc2ccccc12)N1CCN(c2cccc(OP(=O)([O-])[O-])c2)CC1.[Na+].[Na+] [Compound 33, Mono-{3-[4-(acridin-9-ylcarbonyl)piperazin-1-yl]phenyl}phosphate disodium salt]	–	–	–	–	–	–	–	EC50 ([2]; SF-268, 45 h): 0.057 µg/mL; EC50 ([3]; HeLa, 45 h): 0.013 µg/mL; EC50 ([4]; NCI-H460, 45 h): 0.067 µg/mL; EC50 ([5]; SK-OV-3, 45 h): 0.038 µg/mL; solubility (physchem): 9090 µg/mL
